Assay results: patent US8563009B2, “Use of monomycolyl glycerol (MMG) as an adjuvant” (priority 2007, dated 2013)

Legend:
[1] = system: human peripheral blood monocyte-derived immature DC (iDC); format: cell-based; conditions: 24 h, 10 μg/ml lipid, ELISA, Tukey test
[2] = system: human peripheral blood monocyte-derived immature DC (iDC); assay: Activation of human immature dendritic cells, surface markers by flow cytometry; format: cell-based; conditions: 24 h, 10 μg/ml lipid; for mean fold increase in CD86 levels above levels associated with untreated iDC: six individual donors
[3] = system: IFN-γ release by PBMC upon restimulation with antigen; assay: IFN-γ release by lymphocytes of mice immunised with Ag85B-ESAT-6 in adjuvant; format: in vivo, C57BL/6 mice; conditions: for immune response (IFN-γ release by PBMC) in the blood one week after the last vaccination: Ag85B-ESAT-6 in DDA, 10 μg MMG or analogue
[4] = 10 μg lipid in 250 μg DDA liposomes with 2 μg Ag85B-ESAT-6, s.c.

Row | Compound | IL-6 release by DC [1] | DC activation, upregulation of CD86, CD40 and HLA-DR (rank among purified apolar lipids) [2] | mean fold increase in CD86 levels above levels associated with untreated iDC [2] [fold] | IFN-γ levels upon restimulation of PBMC isolated from the draining lymph node [3, 4] [ng/mL] | immune response (IFN-γ release by PBMC) in the blood one week after the last vaccination [3] | IFN-γ production, draining lymph node (in words) [3, 4]
1 | monomycolyl glycerol [MMG] | significantly greater levels | most potent inducer of DC activation | 1.91±0.29 | 10 | comparable levels of responses | –
2 | CCCCCCCCCCCCCCCCCC[N+](C)(C)CCCCCCCCCCCCCCCCCC.[Br-] [DDA, dimethyldioctadecylammonium] | – | – | – | – | lower effect | –
3 | CCCCCCCCCCCCCCCCCC(O)C(CCCCCCCCCCCCCCCC)C(=O)OCC(O)CO (centres unmarked) [synthetic MMG analogue with 36 carbons, 3-hydroxy-2-hexadecylicosanoic acid-2,3-dihydroxypropyl ester] | – | – | – | – | comparable levels of responses | –
4 | triacyl glycerols [TAGs] | – | induced less activation | 1.32±0.14 | – | – | very little IFN-γ release
5 | phenolic glycolipid [PGL] | – | induced less activation | 1.52±0.26 | – | – | very little IFN-γ release
6 | CCCCCCCC(O)C(CCCCCC)C(=O)OCC(O)CO (centres unmarked) [synthetic MMG analogue with 16 carbons, 3-hydroxy-2-hexyl-decanoic acid-2,3-dihydroxypropyl ester] | – | – | – | – | comparable levels of responses | –
7 | phthiocerol dimycocerosate A [PDIM A] | – | second most active lipid | 1.82±0.43 | – | – | albeit to a lower level
